# Several values for one entry are separate records, joined by “and”; a condition that tells them apart may be missing. Identical values can stand only once. Like-named read-outs stand apart in the source and are kept apart here.
# Legend:
# [1] = biological target: C. elegans (N2) complex I (NADH:ubiquinone oxidoreductase) (Caenorhabditis elegans, UniProt P24887+Q93873+Q94360); assay: biochemical; type: biochemical
# Summary of the method: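 Mitochondria, 0.2 mg/mL protein, freeze-thawed three times, assayed in 25 mM KPi pH 7.5 with BSA, 80 μM NADH, 60 μM decylubiquinone, 160 μM DCIP, antimycin A and KCN. Rate from initial linear slope of A600 over 15 min. % of solvent control.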
# [2] = wild-type C. elegans, mean of replicates, read-out: in vitro complex I activity relative to solvent control, Mean
# [3] = wild-type C. elegans, single replicate, read-out: in vitro complex I activity relative to solvent control, individual replicate
# Chain of C. elegans (N2) complex I (NADH:ubiquinone oxidoreductase) (Q94360 17-199): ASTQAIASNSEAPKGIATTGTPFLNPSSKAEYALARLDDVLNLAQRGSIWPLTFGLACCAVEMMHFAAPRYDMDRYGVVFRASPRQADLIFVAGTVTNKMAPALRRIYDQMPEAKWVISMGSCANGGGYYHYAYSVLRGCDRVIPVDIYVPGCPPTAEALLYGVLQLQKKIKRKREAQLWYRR
# Chain of C. elegans (N2) complex I (NADH:ubiquinone oxidoreductase) (P24887 whole entry): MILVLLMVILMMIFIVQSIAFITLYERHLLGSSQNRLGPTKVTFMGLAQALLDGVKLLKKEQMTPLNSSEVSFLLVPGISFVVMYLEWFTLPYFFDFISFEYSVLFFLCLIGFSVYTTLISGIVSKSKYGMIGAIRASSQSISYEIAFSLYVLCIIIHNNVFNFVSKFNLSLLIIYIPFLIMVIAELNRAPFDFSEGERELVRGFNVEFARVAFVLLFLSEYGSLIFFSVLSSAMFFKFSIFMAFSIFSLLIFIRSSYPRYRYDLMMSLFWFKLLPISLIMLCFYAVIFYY
# Chain of C. elegans (N2) complex I (NADH:ubiquinone oxidoreductase) (Q93873 31-482): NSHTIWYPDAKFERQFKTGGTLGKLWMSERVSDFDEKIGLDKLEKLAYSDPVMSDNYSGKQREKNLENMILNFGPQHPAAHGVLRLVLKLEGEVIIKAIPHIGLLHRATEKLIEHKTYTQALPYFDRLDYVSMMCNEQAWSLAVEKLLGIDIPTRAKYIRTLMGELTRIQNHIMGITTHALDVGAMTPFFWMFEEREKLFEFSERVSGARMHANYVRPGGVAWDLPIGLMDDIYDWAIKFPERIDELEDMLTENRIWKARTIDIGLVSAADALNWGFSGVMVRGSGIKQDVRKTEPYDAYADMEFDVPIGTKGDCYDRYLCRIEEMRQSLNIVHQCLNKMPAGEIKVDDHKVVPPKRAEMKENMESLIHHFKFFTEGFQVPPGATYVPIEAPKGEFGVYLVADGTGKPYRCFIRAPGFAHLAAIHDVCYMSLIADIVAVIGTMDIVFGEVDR
smiles,measurement,setting,value
O=C(NCCc1ccc(Cl)cc1)c1ccccc1C(F)(F)F [Wact-11],% Activity Complex I,"[1]; 100 µM compound, relative to solvent control, mean (SEM)",84.83 (1.45) %
same,CI Activity,"[1]; 100 μM inhibitor, in vitro activity relative to solvent control, N2 C. elegans mitochondria, Mean",84.830%
same,"Percent in vitro activity, Complex I (single replicate Rep1-Rep4)","[1]; 100 μM of NPD compound, C. elegans mitochondria, individual biological replicates",83.274% and 93.104% and 79.669%
same,"Percent in vitro activity, Complex I (Mean)","[1]; 100 μM of NPD compound, C. elegans mitochondria, mean of four biological replicates",84.830%
same,"C. elegans L1 relative motility, 3-hour post 200 µM KCN dilution",L1 wild-type C. elegans,0.985
same,KCN survival assay value relative to DMSO control,L1 wild-type C. elegans,0.985
same,"relative motility, 20 min after KCN removal",L1 wild-type C. elegans,0.070
same,"relative motility, 80 min after KCN removal",L1 wild-type C. elegans,0.012
same,"relative motility, 110 min after KCN removal",L1 wild-type C. elegans,0.018
same,"relative motility, 160 min after KCN removal",L1 wild-type C. elegans,0.009
same,"relative motility, 180 min after KCN removal",L1 wild-type C. elegans,0.000
same,KCN survival assay value relative to DMSO control,"L1 wild-type C. elegans; 15 hour drug + KCN treatment, dose 0.1 µM, Mean of replicates",0.937
same,KCN survival assay value relative to DMSO control,"L1 wild-type C. elegans; 15 hour drug + KCN treatment, dose 0.2 µM, Mean of replicates",0.997
same,KCN survival assay value relative to DMSO control,"L1 wild-type C. elegans; 15 hour drug + KCN treatment, dose 0.4 µM, Mean of replicates",0.959
same,KCN survival assay value relative to DMSO control,"L1 wild-type C. elegans; 15 hour drug + KCN treatment, dose 0.8 µM, Mean of replicates",0.815
same,KCN survival assay value relative to DMSO control,"L1 wild-type C. elegans; 15 hour drug + KCN treatment, dose 3.1 µM, Mean of replicates",0.584
same,KCN survival assay value relative to DMSO control,"L1 wild-type C. elegans; 15 hour drug + KCN treatment, dose 6.3 µM, Mean of replicates",0.376
same,KCN survival assay value relative to DMSO control,"L1 wild-type C. elegans; 15 hour drug + KCN treatment, dose 12.5 µM, Mean of replicates",0.173
same,KCN survival assay value relative to DMSO control,"L1 wild-type C. elegans; 15 hour drug + KCN treatment, dose 25 µM, Mean of replicates",0.067
same,KCN survival assay value relative to DMSO control,"L1 wild-type C. elegans; 15 hour drug + KCN treatment, dose 50 µM, Mean of replicates",0.015
same,KCN survival assay value relative to DMSO control,"L1 wild-type C. elegans; 15 hour drug + KCN treatment, dose 100 µM, Mean of replicates",0.006
same,LC50,L1 wild-type C. elegans; caenorhabditis elegans,4.43 µM
same,"C. elegans L1 relative motility, 3-hour post 200 µM KCN dilution","L1 wild-type C. elegans; dose 0.1 µM, Mean of replicates",0.937
same,"C. elegans L1 relative motility, 3-hour post 200 µM KCN dilution","L1 wild-type C. elegans; dose 0.2 µM, Mean of replicates",0.997
same,"C. elegans L1 relative motility, 3-hour post 200 µM KCN dilution","L1 wild-type C. elegans; dose 0.4 µM, Mean of replicates",0.959
same,"C. elegans L1 relative motility, 3-hour post 200 µM KCN dilution","L1 wild-type C. elegans; dose 0.8 µM, Mean of replicates",0.815
same,"C. elegans L1 relative motility, 3-hour post 200 µM KCN dilution","L1 wild-type C. elegans; dose 3.1 µM, Mean of replicates",0.584
same,"C. elegans L1 relative motility, 3-hour post 200 µM KCN dilution","L1 wild-type C. elegans; dose 6.3 µM, Mean of replicates",0.376
same,"C. elegans L1 relative motility, 3-hour post 200 µM KCN dilution","L1 wild-type C. elegans; dose 12.5 µM, Mean of replicates",0.173
same,"C. elegans L1 relative motility, 3-hour post 200 µM KCN dilution","L1 wild-type C. elegans; dose 25 µM, Mean of replicates",0.067
same,"C. elegans L1 relative motility, 3-hour post 200 µM KCN dilution","L1 wild-type C. elegans; dose 50 µM, Mean of replicates",0.015
same,"C. elegans L1 relative motility, 3-hour post 200 µM KCN dilution","L1 wild-type C. elegans; dose 100 µM, Mean of replicates",0.006
same,"C. elegans L1 relative motility, 3-hour post 200 µM KCN dilution","L1 wild-type C. elegans; dose […], Mean of replicates",0.795
c1ccc2[nH]c(-c3cscn3)nc2c1 [Thiabendazole],"C. elegans L1 relative motility, 3-hour post 200 µM KCN dilution","L1 wild-type C. elegans; […], score 0-1 relative to DMSO, values >1 set to 1",1.000
"CC(C)(C)c1ccc(CCOc2ncnc3ccccc23)cc1 [Fenazaquin, reference compound]",remaining activity at 0.0001 µM,"[1]; dose 0.0001 µM, wild-type C. elegans, mean of replicates, read-out: in vitro complex I activity relative to solvent control, Mean",94.3%
same,remaining activity at 0.0005 µM,"[1]; dose 0.0005 µM, wild-type C. elegans, mean of replicates, read-out: in vitro complex I activity relative to solvent control, Mean",89.7%
same,remaining activity at 0.001 µM,[1]; [2],82.5%
same,remaining activity at 0.001 µM,[1]; [3],80.4%
same,remaining activity at 0.0025 µM,[1]; [2],63.3%
same,remaining activity at 0.0025 µM,[1]; [3],63.7%
same,remaining activity at 0.005 µM,[1]; [2],42.1%
same,remaining activity at 0.005 µM,[1]; [3],42.3%
same,remaining activity at 0.013 µM,[1]; [2],24%
same,remaining activity at 0.013 µM,[1]; [3],25.6%
same,remaining activity at 0.025 µM,"[1]; dose 0.025 µM, wild-type C. elegans, mean of replicates, read-out: in vitro complex I activity relative to solvent control, Mean",12.5%
same,remaining activity at 0.063 µM,"[1]; dose 0.063 µM, wild-type C. elegans, mean of replicates, read-out: in vitro complex I activity relative to solvent control, Mean",5.41%
same,remaining activity at 0.125 µM,"[1]; dose 0.125 µM, wild-type C. elegans, mean of replicates, read-out: in vitro complex I activity relative to solvent control, Mean",2.53%
same,remaining activity at 0.313 µM,"[1]; dose 0.313 µM, wild-type C. elegans, mean of replicates, read-out: in vitro complex I activity relative to solvent control, Mean",1.71%
same,remaining activity at 0.625 µM,"[1]; dose 0.625 µM, wild-type C. elegans, mean of replicates, read-out: in vitro complex I activity relative to solvent control, Mean",2.18%
same,remaining activity at 1.5 µM,"[1]; dose 1.5 µM, wild-type C. elegans, mean of replicates, read-out: in vitro complex I activity relative to solvent control, Mean",1.91%
same,remaining activity at 3 µM,"[1]; dose 3 µM, wild-type C. elegans, mean of replicates, read-out: in vitro complex I activity relative to solvent control, Mean",1.48%
same,remaining activity at 15 µM,"[1]; dose 15 µM, wild-type C. elegans, mean of replicates, read-out: in vitro complex I activity relative to solvent control, Mean",1.53%
same,remaining activity at 37.5 µM,"[1]; dose 37.5 µM, wild-type C. elegans, mean of replicates, read-out: in vitro complex I activity relative to solvent control, Mean",1.86%
same,remaining activity at 75 µM,"[1]; dose 75 µM, wild-type C. elegans, mean of replicates, read-out: in vitro complex I activity relative to solvent control, Mean",3.14%
same,IC50,"[1]; wild-type (N2) mitochondria, read-out: C. elegans Complex I IC50",4.2 nM
"COC(=O)Nc1nc2ccc(C(=O)c3ccccc3)cc2[nH]1 [mebendazole, reference compound]",remaining activity at 0.125 µM,"[1]; 0.125 µM, wild-type C. elegans mitochondria, mean of replicates, read-out: percent (%) in vitro complex I activity relative to solvent control",104%
same,percent (%) in vitro complex I activity relative to solvent control,"[1]; 0.125 µM, wild-type C. elegans mitochondria, single replicate",95.514% and 94.187% and 106.525% and 121.019%
same,remaining activity at 0.313 µM,"[1]; 0.313 µM, wild-type C. elegans mitochondria, mean of replicates, read-out: percent (%) in vitro complex I activity relative to solvent control",102%
same,percent (%) in vitro complex I activity relative to solvent control,"[1]; 0.313 µM, wild-type C. elegans mitochondria, single replicate",96.314% and 108.975% and 110.715%
same,remaining activity at 0.313 µM,"[1]; 0.313 µM, wild-type C. elegans mitochondria, single replicate, read-out: percent (%) in vitro complex I activity relative to solvent control",92.7%
same,remaining activity at 0.625 µM,"[1]; 0.625 µM, wild-type C. elegans mitochondria, mean of replicates, read-out: percent (%) in vitro complex I activity relative to solvent control",105%
same,percent (%) in vitro complex I activity relative to solvent control,"[1]; 0.625 µM, wild-type C. elegans mitochondria, single replicate",110.023% and 108.944%
same,remaining activity at 0.625 µM,"[1]; 0.625 µM, wild-type C. elegans mitochondria, single replicate, read-out: percent (%) in vitro complex I activity relative to solvent control",100%
same,remaining activity at 1.5 µM,"[1]; 1.5 µM, wild-type C. elegans mitochondria, mean of replicates, read-out: percent (%) in vitro complex I activity relative to solvent control",101%
same,percent (%) in vitro complex I activity relative to solvent control,"[1]; 1.5 µM, wild-type C. elegans mitochondria, single replicate",91.749% and 101.813% and 107.753%
same,remaining activity at 1.5 µM,"[1]; 1.5 µM, wild-type C. elegans mitochondria, single replicate, read-out: percent (%) in vitro complex I activity relative to solvent control",101%
same,remaining activity at 3 µM,"[1]; 3 µM, wild-type C. elegans mitochondria, mean of replicates, read-out: percent (%) in vitro complex I activity relative to solvent control",104%
same,percent (%) in vitro complex I activity relative to solvent control,"[1]; 3 µM, wild-type C. elegans mitochondria, single replicate",97.513% and 112.361% and 102.837%
same,remaining activity at 3 µM,"[1]; 3 µM, wild-type C. elegans mitochondria, single replicate, read-out: percent (%) in vitro complex I activity relative to solvent control",104%
same,remaining activity at 15 µM,"[1]; 15 µM, wild-type C. elegans mitochondria, mean of replicates, read-out: percent (%) in vitro complex I activity relative to solvent control",102%
same,percent (%) in vitro complex I activity relative to solvent control,"[1]; 15 µM, wild-type C. elegans mitochondria, single replicate",94.944% and 106.604% and 105.394%
same,remaining activity at 15 µM,"[1]; 15 µM, wild-type C. elegans mitochondria, single replicate, read-out: percent (%) in vitro complex I activity relative to solvent control",102%
same,remaining activity at 37.5 µM,"[1]; 37.5 µM, wild-type C. elegans mitochondria, mean of replicates, read-out: percent (%) in vitro complex I activity relative to solvent control",97.7%
same,percent (%) in vitro complex I activity relative to solvent control,"[1]; 37.5 µM, wild-type C. elegans mitochondria, single replicate",90.732% and 104.066% and 100.084%
same,remaining activity at 37.5 µM,"[1]; 37.5 µM, wild-type C. elegans mitochondria, single replicate, read-out: percent (%) in vitro complex I activity relative to solvent control",95.9%
same,remaining activity at 75 µM,"[1]; 75 µM, wild-type C. elegans mitochondria, mean of replicates, read-out: percent (%) in vitro complex I activity relative to solvent control",91.3%
same,percent (%) in vitro complex I activity relative to solvent control,"[1]; 75 µM, wild-type C. elegans mitochondria, single replicate",90.802% and 93.867% and 91.631%
same,remaining activity at 75 µM,"[1]; 75 µM, wild-type C. elegans mitochondria, single replicate, read-out: percent (%) in vitro complex I activity relative to solvent control",88.8%

# From publication PMC11079024, “Identification of a family of species-selective complex I inhibitors as potential anthelmintics” (Nature Communications, 2024)
